{
  "source": "patent US11649261B2",
  "about": "“Crystalline forms of a CD73 inhibitor and uses thereof” (ARCUS BIOSCIENCES, INC., priority 2020, dated 2023)",
  "type_in_all_cases": "physicochemical",
  "key": {"[1]": {"assay": "Competitive slurry of crystalline forms in a 1:2 mixture of EtOH(anhydrous):EtOAc", "details": "1:2 EtOH (anhydrous):EtOAc", "experimental": "A flask was charged with crystalline Form A (1.5 g) and crystalline Form I (1.5 g) with 30 mL of a 1:2 mixture of ethanol (anhydrous) and ethyl acetate. The resulting mixture was allowed to stir at room temperature for 5 hours resulting in a thick white slurry. An additional 6 mL of the 1:2 EtOH (anhydrous):EtOAc mixture was added. The suspension was allowed to stir for 5 days. A small sample of the suspension was pulled from the mixture after 22 hr, 46 hr and 118 hr. The samples were filtered, and dried in an oven at room temperature for 2-3 hr and characterized by XRPD.\nA 20 mL vial was charged with 0.2 g of Form V and 0.2 g of Form I with 4 mL of a 1:2 EtOH (anhydrous):EtOAc mixture. The resulting suspension was stirred vigorously for 3 days. The suspension was filtered, and the solid was dried under reduced pressure at RT for 3 hr.\nA 15 mL round bottom flask was equipped with a stir bar, thermometer and N2 inlet, and was charged with 0.25 g Form I and 0.25 g Form V. To the flask was added 6 mL of a 1:2 EtOH (anhydrous):EtOAc mixture was added to the flask resulting in a white suspension. The suspension was heated to 35° C. and stirred vigorously for 2 days. The suspension was filtered, and the resulting solid dried under reduced pressure at RT for 3 hr.\nA 20 mL vial was charged with 0.2 g Form I and 0.2 g Form II. […]"}, "[2]": {"assay": "Dynamic vapor sorption (DVS)", "details": "for Form of post-DVS sample by XRPD: after DVS at 25° C.", "experimental": "Approximately 10 mg of sample was placed into a mesh vapor sorption balance pan and loaded into a DVS-1, DVS Intrinsic or DVS Advantage dynamic vapor sorption balance by Surface Measurement Systems. The sample was subjected to a ramping profile from 40-90% relative humidity (RH) at 10% increments, maintaining the sample at each step until a stable weight had been achieved (dm/dt 0.004%, minimum step length 30 min, maximum step length 500 min) at 25° C. After completion of the sorption cycle, the sample was dried using the same procedure to 0% RH and then a second sorption cycle back to 90% RH. Two cycles were performed. The weight change during the sorption/desorption cycles were plotted, allowing for the hygroscopic nature of the sample to be determined. XRPD analysis was then carried out on any solid retained.\nForm I and II were analyzed by dynamic vapor sorption (DVS) at 25° C. (FIG. 16 and FIG. 17)."}, "[3]": {"assay": "Equilibrium solubility of Forms I, II and V in EtOH/Heptane", "details": "EtOH/HPT, all solvent ratios, 20 and 35° C.", "experimental": "Equilibrium solubilities of Forms I, II and V were measured in EtOH/Heptane (HPT) solutions of different ratios at 20 and 35° C.\nIn 4 mL test vial, the appropriate solids (Form I or Form II containing Form V) were mixed with ˜1 mL of each solvent to generate slurry. The resulting slurry was shaken at 600 rpm at 20 and 35° C. overnight. After overnight aging, supernatant from each vial was sampled for HPLC for equilibrium solubility, solids were isolated to check by XRPD."}, "[4]": {"assay": "Equilibrium solubility of Form I and Form II + V in EtOH/EtOAc, with XRPD of the end solids", "details": "for Solubility (wt %) / solubility: overnight; for End Form by XRPD: slurry 20° C. overnight", "experimental": "Equilibrium solubilities of Form I and Form V were measured in EtOH/EtOAc at different ratios at 20° C. The Form V starting material contains some Form II as determined by XRPD.\nIn a 4 mL vial, 50 mg of the appropriate solid was mixed with 1 mL of each solvent. The resulting slurry was shaken at 600 rpm at 20° C. overnight. The supernatant from each vial was sampled for HPLC for equilibrium solubility, and the solids isolated and characterized by XRPD."}, "[5]": {"assay": "Competitive slurry conversion testing of Forms I, II and V in EtOH/EtOAc at 20° C.", "experimental": "The relative form stability between Forms I, II and V was investigated by aging mixtures of the mixed forms in EtOH, EtOAc, and mixtures thereof. The Form V starting material contained some Form II as determined by its XRPD pattern.\nIn two 4 mL vials, enough Form I and Form V (containing some Form II) were mixed with 1 mL of the appropriate solvent to generate a slurry in each vial. The two slurries were combined and shaken at 600 rpm at 20° C. The solids from the slurries were isolated for XRPD characterization at time 0, 1 day and 2 days (FIG. 12A-D)."}, "[6]": {"assay": "Form V / Form II interconversion on storage, drying and reslurry", "experimental": "Increasing the temperature to 40° C. and drying Form V under vacuum increased the conversion rate to Form II (full conversion observed after 48 hr)."}, "[7]": {"details": "100 V % EtOH in EtOH/EtOAc, 20° C."}, "[8]": {"details": "≤20 v % EtOH system, aging for two days"}},
  "note": "Entries after “also recorded” stand apart in the source; their conditions may differ. Read-outs that look alike come from different tables or passages of the source.",
  "data": [
    {"compound": "C[C@H](Nc1cc(Cl)nc2c1cnn2[C@@H]1O[C@H](COP(=O)(O)CP(=O)(O)O)[C@@H](O)[C@H]1O)c1ccccc1F", "note": "[Form I, (((((2R,3S,4R,5R)-5-(6-chloro-4-(((S)-1-(2-fluorophenyl)ethyl)amino)-1H-pyrazolo[3,4-b]pyridin-1-yl)-3,4-dihydroxytetrahydrofuran-2-yl)methoxy)(hydroxy)phosphoryl)methyl)phosphonic acid]", "values": [
      {"measurement": "Relative form stability", "setting": "[1]; 35° C., 2 days", "result": "more stable than Form V; also recorded: more stable than Form II"},
      {"measurement": "Relative form stability", "setting": "[1]; RT", "result": "more stable than Form A; also recorded: more stable than Form V; also recorded: more stable than Form II"},
      {"measurement": "Form of post-DVS sample by XRPD", "setting": "[2]", "result": "conversion to Form VI"},
      {"measurement": "Solubility compared between forms", "setting": "[3]", "result": "higher than the solubility of Form II/V mixtures"},
      {"measurement": "Solubility (wt %)", "setting": "[4]; 0 V % EtOH in EtOH/EtOAc, 20° C.", "result": 0.0, "unit": "% wt %"},
      {"measurement": "End Form by XRPD", "setting": "[4]; 0 V % EtOH in EtOH/EtOAc", "result": "Form I"},
      {"measurement": "Solubility (wt %)", "setting": "[4]; 20 V % EtOH in EtOH/EtOAc, 20° C.", "result": 0.1, "unit": "% wt %"},
      {"measurement": "End Form by XRPD", "setting": "[4]; 20 V % EtOH in EtOH/EtOAc", "result": "Form I"},
      {"measurement": "Solubility (wt %)", "setting": "[4]; 33 V % EtOH in EtOH/EtOAc, 20° C.", "result": 1.0, "unit": "% wt %"},
      {"measurement": "End Form by XRPD", "setting": "[4]; 33 V % EtOH in EtOH/EtOAc", "result": "Form I"},
      {"measurement": "Solubility (wt %)", "setting": "[4]; 50 V % EtOH in EtOH/EtOAc, 20° C.", "result": 1.7, "unit": "% wt %"},
      {"measurement": "End Form by XRPD", "setting": "[4]; 50 V % EtOH in EtOH/EtOAc", "result": "Form I"},
      {"measurement": "Solubility (wt %)", "setting": "[4]; 67 V % EtOH in EtOH/EtOAc, 20° C.", "result": 3.0, "unit": "% wt %"},
      {"measurement": "End Form by XRPD", "setting": "[4]; 67 V % EtOH in EtOH/EtOAc", "result": "Form I"},
      {"measurement": "Solubility (wt %)", "setting": "[4]; 80 V % EtOH in EtOH/EtOAc, 20° C.", "result": 4.2, "unit": "% wt %"},
      {"measurement": "End Form by XRPD", "setting": "[4]; 80 V % EtOH in EtOH/EtOAc", "result": "Form I"},
      {"measurement": "Solubility (wt %)", "setting": "[4]; [7]", "result": 6.4, "unit": "% wt %"},
      {"measurement": "solubility", "setting": "[4]; [7]", "result": 46.54, "unit": "mg/mL"},
      {"measurement": "End Form by XRPD", "setting": "[4]; 100 V % EtOH in EtOH/EtOAc", "result": "Form I"},
      {"measurement": "Relative form stability", "setting": "[4]; EtOAc rich solvent system except for too high EtOAc (with too low solubility)", "result": "more stable than Forms II and V"},
      {"measurement": "solubility", "setting": "[4]; EtOH/EtOAc solvent mixture, 20 °C, organic solvent or mixture, thermodynamic from solid, 20 V % EtOH in EtOH/EtOAc, 20° C., read-out: Solubility", "result": 1.01, "unit": "mg/mL"},
      {"measurement": "solubility", "setting": "[4]; EtOH/EtOAc solvent mixture, 20 °C, organic solvent or mixture, thermodynamic from solid, 33 V % EtOH in EtOH/EtOAc, 20° C., read-out: Solubility", "result": 8.93, "unit": "mg/mL"},
      {"measurement": "solubility", "setting": "[4]; EtOH/EtOAc solvent mixture, 20 °C, organic solvent or mixture, thermodynamic from solid, 50 V % EtOH in EtOH/EtOAc, 20° C., read-out: Solubility", "result": 13.7, "unit": "mg/mL"},
      {"measurement": "solubility", "setting": "[4]; EtOH/EtOAc solvent mixture, 20 °C, organic solvent or mixture, thermodynamic from solid, 67 V % EtOH in EtOH/EtOAc, 20° C., read-out: Solubility", "result": 23.7, "unit": "mg/mL"},
      {"measurement": "solubility", "setting": "[4]; EtOH/EtOAc solvent mixture, 20 °C, organic solvent or mixture, thermodynamic from solid, 80 V % EtOH in EtOH/EtOAc, 20° C., read-out: Solubility", "result": 32.8, "unit": "mg/mL"},
      {"measurement": "solubility", "setting": "[4]; EtOH/EtOAc solvent mixture, 20 °C, organic solvent or mixture, thermodynamic from solid, 100 V % EtOH in EtOH/EtOAc, 20° C., read-out: Solubility", "result": "~46", "unit": "mg/mL"},
      {"measurement": "Crystal form change in solubility vials", "setting": "[4]; EtOH/EtOAc, all ratios, 20° C.", "result": "No crystal form change"},
      {"measurement": "Form conversion in competitive slurry", "setting": "[5]; solvents with ≥80 v % EtOH", "result": "converted to Form II"},
      {"measurement": "Form conversion in competitive slurry", "setting": "[5]; [8]", "result": "remained"}
    ]},
    {"compound": "C[C@H](Nc1cc(Cl)nc2c1cnn2[C@@H]1O[C@H](COP(=O)(O)CP(=O)(O)O)[C@@H](O)[C@H]1O)c1ccccc1F", "note": "[Form II, (((((2R,3S,4R,5R)-5-(6-chloro-4-(((S)-1-(2-fluorophenyl)ethyl)amino)-1H-pyrazolo[3,4-b]pyridin-1-yl)-3,4-dihydroxytetrahydrofuran-2-yl)methoxy)(hydroxy)phosphoryl)methyl)phosphonic acid]", "values": [
      {"measurement": "Form of post-DVS sample by XRPD", "setting": "[2]", "result": "conversion to Form VI"},
      {"measurement": "Water uptake compared with Form I", "setting": "[2]; from 40% to 70% relative humidity (RH), 25° C.", "result": "much less water uptake"},
      {"measurement": "Form recovered after resuspending", "setting": "[6]; 1:1 EtOH:EtOAc mixture overnight with stirring", "result": "recovery of Form V"},
      {"measurement": "Relative form stability", "setting": "[4]; EtOH rich or EtOAc lean solvent systems", "result": "more stable than Forms I and V"}
    ]},
    {"compound": "C[C@H](Nc1cc(Cl)nc2c1cnn2[C@@H]1O[C@H](COP(=O)(O)CP(=O)(O)O)[C@@H](O)[C@H]1O)c1ccccc1F", "note": "[Form V, (((((2R,3S,4R,5R)-5-(6-chloro-4-(((S)-1-(2-fluorophenyl)ethyl)amino)-1H-pyrazolo[3,4-b]pyridin-1-yl)-3,4-dihydroxytetrahydrofuran-2-yl)methoxy)(hydroxy)phosphoryl)methyl)phosphonic acid]", "values": [
      {"measurement": "Time for full conversion to Form II", "setting": "[6]; 40° C., drying under vacuum", "result": 48, "unit": "h"},
      {"measurement": "Time for full conversion to Form II", "setting": "[6]; stored at ambient temperature under an N2 blanket", "result": "> 48", "unit": "h"},
      {"measurement": "Form conversion in competitive slurry", "setting": "[5]; 50~33 v % EtOH solvents", "result": "converted to Form I"},
      {"measurement": "Form conversion in competitive slurry", "setting": "[5]; solvents with ≥80 v % EtOH", "result": "converted to Form II"},
      {"measurement": "Form conversion in competitive slurry", "setting": "[5]; [8]", "result": "remained"}
    ]}
  ]
}
